Among the data in ChEMBL document CHEMBL1136754, “Mechanism of action of the diazabicyclononanone-type kappa-agonists” (J Med Chem, 2003) are Ki values, retold here.

What all share (format): tissue-based
Experiment [1] concerns the target Delta-type opioid receptor (Rattus norvegicus, UniProt P33533). The experiment in a line: Binding affinity towards Opioid receptor delta 1 using [3H]CI-DPDPE as radioligand in rat brain.
In another experiment the target is Mu-type opioid receptor (Rattus norvegicus, UniProt P33535). The experiment in a line: Binding affinity towards Opioid receptor mu 1 using [3H]naloxone as radioligand in rat brain.
Sequence of Mu-type opioid receptor (P33535 whole entry): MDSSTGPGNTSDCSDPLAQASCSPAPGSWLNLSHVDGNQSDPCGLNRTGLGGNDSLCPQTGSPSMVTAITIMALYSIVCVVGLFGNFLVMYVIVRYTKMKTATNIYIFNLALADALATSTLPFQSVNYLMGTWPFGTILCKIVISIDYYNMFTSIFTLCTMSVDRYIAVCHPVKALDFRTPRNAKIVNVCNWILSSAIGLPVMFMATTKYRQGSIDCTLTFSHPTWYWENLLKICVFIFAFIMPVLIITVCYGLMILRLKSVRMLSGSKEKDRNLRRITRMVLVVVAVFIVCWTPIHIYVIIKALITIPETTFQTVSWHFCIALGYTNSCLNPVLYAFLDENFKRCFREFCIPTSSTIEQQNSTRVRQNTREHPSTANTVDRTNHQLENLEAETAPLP
Experiment [2] concerns the target Kappa-type opioid receptor (Rattus norvegicus, UniProt P34975). The experiment in a line: Binding affinity towards KOR (Opioid receptor kappa 1) using [3H]CI977 as radioligand in rat brain.

A value given as a limit tells only on which side of the number the result lay.

Sequence of Delta-type opioid receptor (P33533 whole entry): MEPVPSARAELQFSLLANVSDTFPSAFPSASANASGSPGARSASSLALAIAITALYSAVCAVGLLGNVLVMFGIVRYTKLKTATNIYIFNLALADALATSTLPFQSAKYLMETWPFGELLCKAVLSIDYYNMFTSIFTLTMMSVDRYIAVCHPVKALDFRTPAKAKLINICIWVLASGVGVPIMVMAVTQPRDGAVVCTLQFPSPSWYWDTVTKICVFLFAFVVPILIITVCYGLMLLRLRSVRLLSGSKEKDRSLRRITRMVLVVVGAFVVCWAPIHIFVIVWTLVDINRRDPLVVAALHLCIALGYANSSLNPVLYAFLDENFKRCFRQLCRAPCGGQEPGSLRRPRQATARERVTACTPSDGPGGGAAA
Sequence of Kappa-type opioid receptor (P34975 whole entry): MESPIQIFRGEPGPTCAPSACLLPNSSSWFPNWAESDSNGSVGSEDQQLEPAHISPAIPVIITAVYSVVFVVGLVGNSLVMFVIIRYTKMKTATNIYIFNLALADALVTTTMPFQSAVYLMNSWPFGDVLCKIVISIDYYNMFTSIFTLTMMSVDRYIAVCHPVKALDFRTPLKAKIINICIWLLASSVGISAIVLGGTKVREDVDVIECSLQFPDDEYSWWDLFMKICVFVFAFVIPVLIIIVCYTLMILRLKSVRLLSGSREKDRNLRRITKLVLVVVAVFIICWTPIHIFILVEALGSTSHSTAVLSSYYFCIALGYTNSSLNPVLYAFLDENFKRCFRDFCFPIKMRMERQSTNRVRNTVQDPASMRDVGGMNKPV

In the case of `CN1CC2C(=O)C(C1)C(c1ccccn1)N(C)C2c1ccccn1` (stereo not drawn), the Ki (in general, a measure of affinity in units of concentration, obtained from inhibition or displacement) was over 10 µM in experiment [1], over 1 µM on Mu-type opioid receptor and 0.015 µM in experiment [2].
